{"source": "paper PMC7251097", "about": "“Aspartate/asparagine-β-hydroxylase: a high-throughput mass spectrometric assay for discovery of small molecule inhibitors” (Scientific Reports, 2020)", "target": "T1, His6-AspH315–758 (human aspartate/asparagine-β-hydroxylase, AspH) (Homo sapiens, UniProt Q12797)", "T1 construct": "N-Terminally His6-tagged human AspH315–758 (His6-AspH315–758) was produced in E. coli BL21 (DE3) cells; made in house; host or cells: E. coli BL21 (DE3), pET-28a(+) vector", "T1 sequence (Q12797 315-758)": "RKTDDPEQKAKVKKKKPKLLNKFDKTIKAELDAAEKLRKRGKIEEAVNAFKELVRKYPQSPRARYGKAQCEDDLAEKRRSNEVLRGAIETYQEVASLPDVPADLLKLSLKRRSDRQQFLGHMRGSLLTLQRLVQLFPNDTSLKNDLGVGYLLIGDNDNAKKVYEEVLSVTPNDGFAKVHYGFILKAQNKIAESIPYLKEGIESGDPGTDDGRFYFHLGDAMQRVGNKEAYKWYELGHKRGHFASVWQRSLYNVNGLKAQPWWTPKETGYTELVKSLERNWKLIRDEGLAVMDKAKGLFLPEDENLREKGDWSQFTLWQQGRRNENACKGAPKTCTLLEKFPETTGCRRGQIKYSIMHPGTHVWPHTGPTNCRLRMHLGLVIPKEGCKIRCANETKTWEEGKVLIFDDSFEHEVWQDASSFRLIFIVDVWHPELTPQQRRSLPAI", "experiment": "SPE-MS AspH inhibition assay (LOPAC screen at fixed 20 μM and IC50 dose-response), hydroxylation of cyclic peptide hFX-CP101–119", "assay_type": "biochemical", "settings": "for Plate 1 (% inhibition): plate 1, normalised to DMSO and 2,4-PDCA controls; for inhibition at 20 µM: read-out: Plate 2 (% inhibition); for % conversion: LOPAC Plate 4, compound at 20 uM", "key": {"[1]": {"settings": "LOPAC compound at fixed 20 uM, substrate conversion, plate 1"}, "[2]": {"settings": "LOPAC compound at 20uM, plate 2, conversion of substrate peptide"}, "[3]": {"settings": "LOPAC compound at 20uM, plate 2, normalised to DMSO and 2,4-PDCA controls"}, "[4]": {"settings": "LOPAC compound at 20uM, conversion of substrate peptide"}}, "note": "Counter-ions that a name gives are not always drawn. Like-named read-outs stand apart in the source and are kept apart here.", "data": [{"molecule": "CO/N=C(\\C(=O)N[C@@H]1C(=O)N2C(C(=O)O)=C(CSc3nc(=O)c(=O)[nH]n3C)CS[C@H]12)c1csc(N)n1", "note": "[Ceftriaxone sodium]", "values": [{"measurement": "Plate 1 (% inhibition)", "setting": "LOPAC compound at fixed 20 uM", "value": -8.63, "unit": "%"}, {"measurement": "Plate 1 (% conversion)", "setting": "[1]", "value": 38.77, "unit": "%"}]}, {"molecule": "O=c1cc(O)cc(/C=C/c2ccc(O)c(O)c2)o1", "note": "[Hispidin, reference compound]", "values": [{"measurement": "Plate 2 (% conversion)", "setting": "[2]", "value": 3.05, "unit": "%"}, {"measurement": "inhibition at 20 µM", "setting": "[3]", "value": 98.3, "unit": "%"}]}, {"molecule": "CSc1ccccc1N1CCN(CCCCCC(=O)NC2CCCc3ccccc32)CC1", "note": "(centres unmarked) [LP44]", "values": [{"measurement": "Plate 3 (% conversion)", "setting": "[4]", "value": 36.33, "unit": "%"}]}, {"molecule": "O=C1Nc2ccccc2/C1=C1/Nc2ccccc2/C1=N\\O", "note": "[Indirubin-3-oxime]", "values": [{"measurement": "Plate 1 (% inhibition)", "setting": "LOPAC compound at fixed 20 uM", "value": 11.42, "unit": "%"}, {"measurement": "Plate 1 (% conversion)", "setting": "[1]", "value": 32.04, "unit": "%"}]}, {"molecule": "O=C1N(c2ccccc2)c2ccccc2C1(Cc1ccncc1)Cc1ccncc1", "note": "[Linopirdine]", "values": [{"measurement": "Plate 3 (% conversion)", "setting": "[4]", "value": 41.24, "unit": "%"}]}, {"molecule": "C[N+]1(C)CCN(c2ccccc2)CC1.[I-]", "values": [{"measurement": "Plate 2 (% conversion)", "value": 36.09, "unit": "%"}, {"measurement": "Plate 2 (% inhibition)", "setting": "20 µM", "value": -0.39, "unit": "%"}]}, {"molecule": "CC(C)(C)NC[C@H](O)COc1nsnc1N1CCOCC1.O=C(O)/C=C\\C(=O)O", "note": "[S(-)-Timolol maleate]", "values": [{"measurement": "% conversion", "setting": "substrate conversion", "value": 29.54, "unit": "%"}]}, {"molecule": "C[C@](N)(CCP(=O)(O)O)C(=O)O.Cl", "note": "[(S)-MAP4 hydrochloride]", "values": [{"measurement": "Plate 3 (% conversion)", "setting": "[4]", "value": 32.97, "unit": "%"}]}, {"molecule": "C[N+](C)(C)CCOC(N)=O", "note": "[Carbachol]", "values": [{"measurement": "Plate 1 (% inhibition)", "setting": "LOPAC compound at fixed 20 uM", "value": -3.17, "unit": "%"}, {"measurement": "Plate 1 (% conversion)", "setting": "[1]", "value": 36.94, "unit": "%"}]}, {"molecule": "O=C(c1ccc2c(c1)OCCO2)N1CCCCC1", "note": "[CX 546]", "values": [{"measurement": "Plate 2 (% conversion)", "setting": "[2]", "value": 39.70, "unit": "%"}, {"measurement": "Plate 2 (% inhibition)", "setting": "[3]", "value": -11.19, "unit": "%"}]}, {"molecule": "O=C(OCCN1CCOCC1)C1(c2ccccc2)CCCCC1", "note": "[PRE-084]", "values": [{"measurement": "Plate 3 (% conversion)", "setting": "[4]", "value": 38.46, "unit": "%"}]}, {"molecule": "C[N+](C)(C)CC=O", "note": "[Betaine aldehyde chloride]", "values": [{"measurement": "Plate 1 (% inhibition)", "setting": "LOPAC compound at fixed 20 uM", "value": -3.10, "unit": "%"}, {"measurement": "Plate 1 (% conversion)", "setting": "[1]", "value": 36.91, "unit": "%"}]}, {"molecule": "CC(C)[N+](C)(CCOC(=O)C1c2ccccc2Oc2ccccc21)C(C)C", "note": "[Propantheline bromide]", "values": [{"measurement": "% conversion", "setting": "substrate conversion", "value": 33.19, "unit": "%"}]}, {"molecule": "Cn1cc(C(=O)OCC2CCN(CCNS(C)(=O)=O)CC2)c2ccccc21", "note": "[GR 113808]", "values": [{"measurement": "Plate 1 (% inhibition)", "setting": "LOPAC compound at fixed 20 uM", "value": -5.71, "unit": "%"}, {"measurement": "Plate 1 (% conversion)", "setting": "[1]", "value": 37.79, "unit": "%"}]}, {"molecule": "Cc1c2ccncc2c(C)c2c1[nH]c1ccccc12", "note": "[Ellipticine]", "values": [{"measurement": "Plate 2 (% conversion)", "value": 45.95, "unit": "%"}, {"measurement": "inhibition at 20 µM", "setting": "[3]", "value": -29.9, "unit": "%"}]}, {"molecule": "COC(=O)c1c(C)[nH]c(C)c1C(=O)c1ccccc1Cc1ccccc1", "note": "[FPL 64176]", "values": [{"measurement": "Plate 2 (% conversion)", "setting": "[2]", "value": 38.85, "unit": "%"}, {"measurement": "Plate 2 (% inhibition)", "setting": "[3]", "value": -8.64, "unit": "%"}]}, {"molecule": "OC[C@H]1OC(n2cnc3ccccc32)[C@H](O)[C@@H]1O", "note": "(stereo partly drawn) [D-ribofuranosylbenzimidazole]", "values": [{"measurement": "Plate 2 (% conversion)", "setting": "[2]", "value": 37.89, "unit": "%"}, {"measurement": "Plate 2 (% inhibition)", "setting": "[3]", "value": -5.77, "unit": "%"}]}, {"molecule": "CN1CC[C@@]2(C)c3cc(O)ccc3N(C)[C@@H]12.O=C(O)/C=C/C(=O)O", "note": "[(-)-Eseroline fumarate]", "values": [{"measurement": "Plate 2 (% conversion)", "value": 19.71, "unit": "%"}, {"measurement": "Plate 2 (% inhibition)", "setting": "20 µM", "value": 48.52, "unit": "%"}]}, {"molecule": "Cl.N[C@@H](CCC(=O)O)C(=O)O", "note": "[L-Glutamic acid hydrochloride]", "values": [{"measurement": "Plate 2 (% conversion)", "setting": "[2]", "value": 29.01, "unit": "%"}, {"measurement": "Plate 2 (% inhibition)", "setting": "[3]", "value": 20.74, "unit": "%"}]}, {"molecule": "C=Cc1cc(O)cc2nc(-c3ccc(O)c(F)c3)oc12", "note": "[ERB-041]", "values": [{"measurement": "Plate 5 (% inhibition)", "setting": "plate 5 (Pfitzer), test compounds at fixed 20 μM", "value": 30.36, "unit": "%"}, {"measurement": "Plate 5 (% conversion)", "setting": "plate 5 (Pfitzer), test compounds at fixed 20 μM, mean conversion DMSO 32.88", "value": 25.98, "unit": "%"}]}, {"molecule": "CNS(=O)(=O)CCc1ccc2[nH]cc(C3CCN(C)CC3)c2c1", "note": "[Naratriptan hydrochloride]", "values": [{"measurement": "Plate 2 (% conversion)", "setting": "[2]", "value": 39.49, "unit": "%"}, {"measurement": "inhibition at 20 µM", "setting": "[3]", "value": -10.6, "unit": "%"}]}, {"molecule": "NCCCNCCSP(=O)(O)O", "note": "[Amifostine]", "values": [{"measurement": "Plate 1 (% conversion)", "value": 40.67, "unit": "%"}, {"measurement": "Plate 1 (% inhibition)", "setting": "LOPAC compound at fixed 20 uM", "value": -14.28, "unit": "%"}]}, {"molecule": "O=C1Cc2cc(CCN3CCN(c4nsc5ccccc45)CC3)c(Cl)cc2N1", "note": "[Ziprasidone hydrochloride monohydrate]", "values": [{"measurement": "% conversion", "setting": "substrate conversion", "value": 26.15, "unit": "%"}]}, {"molecule": "NCC(O)(CS(=O)(=O)O)c1ccc(Cl)cc1", "note": "(centres unmarked) [2-Hydroxysaclofen]", "values": [{"measurement": "Plate 1 (% inhibition)", "setting": "LOPAC compound at fixed 20 uM", "value": -6.82, "unit": "%"}, {"measurement": "Plate 1 (% conversion)", "setting": "[1]", "value": 38.16, "unit": "%"}]}]}
